Measurements from patent US20210369739A1, “COMBINATION THERAPY OF ACYLTHIOUREA COMPOUND AND ABIRATERONE” (TAIHO PHARMACEUTICAL CO., LTD., priority 2018, published 2021).

Key:
[1] = Combinational administration test: seriousness of side effects (CTCAE Ver. 4.03); type: in vivo, human; conditions: every dosage group; in combination with abiraterone acetate
Experimental: A methanesulfonate salt of compound I and abiraterone acetate were administered to patients of castration-resistant prostate cancer with bone metastasis as subjects, and the efficacy and side effects were evaluated. A schedule of administering the methanesulfonate salt of compound I in any of three doses in terms of the free form (200, 300, or 400 mg/body/day) to patients who were receiving secondary endocrine therapy before docetaxel treatment as subjects once a day for 5 days and taking a drug holiday of the compound I only for 2 days was repeated. During this period, 1000 mg of abiraterone acetate was administered to every dosage groups every day once a day, and six subjects were examined in each dosage group. […] In the side effects that determine this discontinuation of enrollment and evaluation, etc., abnormal clinical examination values, such as an increase in alanine aminotransferase (ALT), an increase in aspartate aminotransferase (AST), and an increase in blood creatine kinase (CK), are not included. […] Accordingly, since the number of cases for evaluation of each dosage group is small, i.e., 6 cases, from the viewpoint of the efficacy, side effects, and administration continuity, 6 cases at 300 mg/body/day were additionally evaluated. […]

[2] = tested on: bone metastasis of castration-resistant prostate cancer; experiment: Combinational administration test: bone scintigraphy, Bone Scan Index (BSI); type: in vivo, human; conditions: with 1000 mg abiraterone acetate once a day
Experimental: A methanesulfonate salt of compound I and abiraterone acetate were administered to patients of castration-resistant prostate cancer with bone metastasis as subjects, and the efficacy and side effects were evaluated. A schedule of administering the methanesulfonate salt of compound I in any of three doses in terms of the free form (200, 300, or 400 mg/body/day) to patients who were receiving secondary endocrine therapy before docetaxel treatment as subjects once a day for 5 days and taking a drug holiday of the compound I only for 2 days was repeated. During this period, 1000 mg of abiraterone acetate was administered to every dosage groups every day once a day, and six subjects were examined in each dosage group. […] In the side effects that determine this discontinuation of enrollment and evaluation, etc., abnormal clinical examination values, such as an increase in alanine aminotransferase (ALT), an increase in aspartate aminotransferase (AST), and an increase in blood creatine kinase (CK), are not included. […] Accordingly, since the number of cases for evaluation of each dosage group is small, i.e., 6 cases, from the viewpoint of the efficacy, side effects, and administration continuity, 6 cases at 300 mg/body/day were additionally evaluated.
Regarding the efficacy, bone scintigraphy to be used for detecting bone metastasis was implemented, and evaluation was performed based on Bone Scan Index (BSI) using analytical data by BONE NAVI and criteria of Response Evaluation Criteria in Solid Tumors (RECIST) guideline Version 1.1 or Prostate Cancer Clinical Trials Working Group 3 (PCWG3). […] The ANN value indicates the degree of confidence of metastasis on a scale from 0 to 1, and an ANN value exceeding 0.5 is assessed to have a risk of bone metastasis. In addition, in FIG. 1, the best value among BSI measured during the period of administration of the compound I is shown as Best response based on the bone metastasis on the day of starting the administration in each dosage group.

CNC(=O)c1cc2c(Oc3ccc(NC(=S)NC(=O)Cc4ccccc4)cc3F)ccnc2cc1OC [compound I, 4-(2-fluoro-4-(3-(2-phenylacetyl)thioureido)phenoxy)-7-methoxy-N-methylquinoline-6-carboxamide]
side effects [1]: acceptable
suppression of bone metastasis observed (BSI) ([2]; 200 mg/body/day as free form, once a day for 5 days then 2-day holiday, CRPC patients with bone metastasis): two of six
BSI value became 0 ([2]; 300 mg/body/day, among the 10 cases with suppression): three
suppression of bone metastasis observed (BSI) ([2]; 400 mg/body/day as free form, bone metastasis not measurable in one of six cases): five of the remaining five
